# In patent US6903052B2, “Nematicidal compositions and methods” (Divergence, Inc., priority 2002, dated 2005):
# Tests used:
# [1] = test system: everted hamster jejunal and ileal segments; settings: Gaginella et al. (1975); cited from earlier work
# [2] = test system: isolated intestinal epithelial cells; settings: Gaginella et al. (1977); cited from earlier work
# [3] = test system: H. glycines; test: Nematicidal activity of fatty acid methyl ester emulsions, spectrum (Example 8); assay type: cell-based, Heterodera glycines; settings: H. glycines 2nd stage juveniles, scored at 48 hours
# Procedure: (§1) Briefly, the indicated fatty acid emulsions were added and rapidly mixed by swirling. Nematode viability was scored by visual observation and motility assays 24 hours following addition of emulsions (48 hours for plant parasitic nematodes Meloidogyne and Heterodera species). The fatty acid emulsions tested were methyl esters of nonanoic (pelargonic) acid, ricinelaidic acid, ricinoleic acid, vernolic acid, linoleic acid, and oleic acid. […] Results shown are mean % values obtained from multiple independent experiments
# (§2) The Caenorhabiditis elegans were mixed stage populations. Similar effects seen on several other free-living nematode species. The Parastrongyloides trichosuri (parasite of Australian bushtail possum) were dauer-like infective 3rd stage larva. Similar effects are also seen against free-living stages. The Meloidogyne incognita and Meloidogyne javanica (root knot nematode) were 2nd stage juveniles (dauer-like infective stage). The Heterodera glycines (soybean cyst nematode) were 2nd stage juveniles (dauer-like infective stage). Finally, the Pratylenchus scribneri (corn lesion nematode) were mixed stage populations.
# [4] = test system: C. elegans; test: as above; assay type: cell-based, Caenorhabditis elegans; settings: C. elegans mixed stage
# Procedure: as §1, §2
# [5] = test system: M. javanica; test: as above; assay type: cell-based, Meloidogyne javanica; settings: M. javanica 2nd stage juveniles, scored at 48 hours
# Procedure: as §1, §2
# [6] = test system: C. elegans; test: Rescue of C. elegans delta-12 FAT RNAi feeding phenotype by fatty acid methyl esters; assay type: cell-based, Caenorhabditis elegans; settings: 3 mM added to the NGM media
# From the text: RNAi by feeding: C. elegans can be grown on lawns of E. coli genetically engineered to produce double stranded RNA (dsRNA) designed to inhibit delta-12 fat-2 expression. Briefly, E. coli were transformed with a genomic fragment of a portion of the C. elegans fat-2 gene sequence, specifically a fragment 651 nucleotides long, containing the entire first exon and terminating just before the conserved intron splice junction between the first exon and first intron. This construct encodes approximately the first 217 amino acids of the C. elegans delta-12 FAT gene. The 651 nucleotide genomic fragment was cloned into an E. coli expression vector between opposing T7 polymerase promoters. The clone was then transformed into a strain of E. coli that carries an IPTG-inducible T7 polymerase. As a control, E. coli was transformed with a gene encoding the Green Fluorescent Protein (GFP). Feeding RNAi was initiated from C. elegans eggs or from C. elegans […]. […] When feeding RNAi was started from C. elegans L4 larvae at 23° C. on NGM plates containing IPTG and E. coli expressing the C. elegans […] […] The sequence of the fat-2 gene is of sufficiently high complexity (i.e., unique) such that the RNAi is not likely to represent cross reactivity with other genes. […]
# [7] = test system: C. elegans; test: Nematicidal activity of single fatty acid methyl ester emulsions against Caenorhabditis elegans (Example 4); assay type: cell-based
# Procedure: Mixed stage Caenorhabditis elegans were washed off plates seeded with OP50 bacteria using M9 solution. 250 μl of the M9 solution, which contained about 50 worms, was pipetted into each well of a 24-well plate.
# (§3) Fatty acid methyl ester emulsions were prepared following the teachings of Kim et al (U.S. Pat. No. 5,698,592). Briefly, 1 ml 1% stock solution emulsions were prepared by mixing 10 μl of fatty acid methyl ester with 20 μl of the surfactant Igepal CO 630 in a 1.5 ml eppendorf tube. After careful mixing of fatty acid and Igepal CO 630, 850 μl of ddH20 was added and mixed by gentle pipetting until a homogeneous solution was obtained. Finally, 120 μl of pure isopropanol was added and mixed by gentle pipetting. This stock solution was then used to produce various fatty acid methyl ester dilution emulsions in 24-well plate assays.
# To each well, fatty acid emulsions or control emulsions were added and rapidly mixed by swirling. Nematode viability was scored by visual observation and motility assays at various time points 24 hours following addition of emulsions or controls. The fatty acid emulsions tested were methyl esters of nonanoic (pelargonic) acid, ricinoleic acid, vernolic acid, linoleic acid, oleic acid, and control emulsions lacking fatty acids.
# [8] = test system: P. scribneri; test: Nematicidal activity of fatty acid methyl ester emulsions, spectrum (Example 8); assay type: cell-based, Pratylenchus scribneri; settings: P. scribneri mixed stage
# Procedure: as §1, §2
# [9] = test system: C. elegans; test: Nematicidal activity of emulsions made with Tween-20 (replacing Igepal CO 630) against C. elegans; assay type: cell-based, Caenorhabditis elegans; settings: Tween-20 emulsion
# Procedure: Some nematodes assayed as described in Example 9 lacked tolerance to emulsions made with the surfactant Igepal CO 630. For this reason some assays were repeated with Tween-20-based emulsions.
# as §3, with “Briefly,” for “Fatty acid methyl ester emulsions were prepared following the teachings of Kim et al (U.S. Pat. No. 5,698,592). Briefly,”, “Tween-20” for “Igepal CO 630”, “Tween-20,” for “Igepal CO 630,”
# [10] = test system: C. elegans; test: Nematicidal activity of emulsions made with cyclodextrins (replacing isopropanol) against C. elegans; assay type: cell-based, Caenorhabditis elegans; settings: igepal CO 630 / 2-Hydroxypropyl-β-Cyclodextrin emulsion
# From the text: In an effort to increase the bioavailability of fatty acid methyl esters in emulsions, isopropanol was replaced with one of two cyclodextrins (Methyl-β-Cyclodextrin or 2-Hydroxypropyl-β-Cyclodextrin).
# [11] = test system: P. trichosuri; test: Nematicidal activity of fatty acid methyl ester emulsions, spectrum (Example 8); assay type: cell-based, Parastrongyloides trichosuri; settings: P. trichosuri infective 3rd stage larva
# Procedure: as §1, §2
# [12] = test system: M. incognita; test: as above; assay type: cell-based, Meloidogyne incognita; settings: M. incognita 2nd stage juveniles, scored at 48 hours
# Procedure: as §1, §2
# [13] = test system: tomato seedlings; test: Phytotoxicity evaluation on tomato seedlings; assay type: in vivo; settings: 250 μl of 1% emulsion applied to stem-media interface of two-week seedlings
# Procedure: Sterilized tomato seeds were germinated in magenta jars containing Gamborg's agar media. After two weeks of growth, seedlings were treated with 250 μl of 1% fatty acid methyl ester emulsion (nonanoic acid, ricinoleic acid, ricinelaidic acid, oleic acid, or a control emulsion lacking any fatty acid), applied directly to the stem-media interface. Tomato seedlings were scored at various times after application of emulsions.
# [14] = test system: M. incognita; test: Nematicidal activity of fatty acid methyl ester emulsions against root knot nematode J2 larvae (Example 6); assay type: cell-based, Meloidogyne incognita; settings: 0.1% emulsion; 48 hours incubation, counted about 24 hours after transfer to plates
# Procedure: as §3
# (§4) Meloidogyne incognita and javanica were prepared from tomato roots. The roots were bleached and the debris was separated from the J2 larvae and eggs by filtration followed by sucrose density gradient centrifugation. Eggs were hatched over 4 days at 15° C. and the J2 larvae were collected by passage though a filter, followed by centrifugation.
# (§5) Nematodes and emulsions were incubated with shaking at room temperature for 48 hours. The contents of each well were transferred to a small spot on individual NGM plates lacking bacteria. About 24 hours after the transfer to plates, worms on and off the inoculation spot were counted as not viable or viable, respectively. Worms were considered viable if they had crawled away from the inoculation spot, or if they were moving. Worms were considered non-viable if they remained at the inoculation spot.
# [15] = test system: M. javanica; test: as above; assay type: cell-based, Meloidogyne javanica; settings: 0.1% emulsion; 48 hours incubation, counted about 24 hours after transfer to plates
# Procedure: as §3, §4, §5
# [16] = test system: B. malayi; test: Nematicidal activity of tween-based emulsions against microfilarial nematodes; assay type: cell-based, Brugia malayi
# Procedure: To each well, tween-based fatty acid emulsions were added and rapidly mixed by swirling. Nematode microfilaria viability was scored by visual observation of motility at 24 and 48 hours following addition of emulsions. The fatty acid emulsions tested were methyl esters of ricinoleic acid, vernolic acid, ricinelaidic acid, oleic acid, and control emulsions lacking fatty acids. The results of this study are presented in Table 7 as the percentage of non-motile microfilaria 24 hours after inoculation and in Table 8 as the percentage of non-motile microfilaria 48 hours after inoculation
SMILES,% Worm Death (24 hr) ([3]; 0.001% solution) [%],% Worm Death (24 hr) ([3]; 0.01% solution) [%],% Worm Death (24 hr) ([3]; 0.1% solution) [%],% Worm Death (24 hr) ([4]; 0.01% solution) [%],% Worm Death (24 hr) ([4]; 0.1% solution) [%],Rescue of the delta-12 FAT RNAi feeding phenotype [6],"Percentage of Worm Death ([7]; 0.003% emulsion, 1 hr)","Percentage of Worm Death ([7]; 0.003% emulsion, 6 hr)","Percentage of Worm Death ([7]; 0.003% emulsion, 24 hr)","Percentage of Worm Death ([7]; 0.1% emulsion, 1 hr)","Percentage of Worm Death ([7]; 0.1% emulsion, 6 hr)","Percentage of Worm Death ([7]; 0.1% emulsion, 24 hr)",% Worm Death (24 hr) ([8]; 0.01% solution) [%],% Worm Death (24 hr) ([8]; 0.1% solution) [%],% Worm Death (24 hr) ([11]; 0.01% solution),% Worm Death (24 hr) ([11]; 0.1% solution),also measured
"CCCCCC[C@@H](O)C/C=C\CCCCCCCC(=O)O [Ricinoleic acid, reference compound]",–,–,–,–,–,–,–,–,–,–,–,–,–,–,–,–,Effect on water (and electrolyte) absorption [1]: inhibitory effect on water and electrolyte absorption; Cytotoxicity [2]: cytotoxic
"CCCCC/C=C\C/C=C\CCCCCCCC(=O)OC [Linoleic Acid (C18-methyl ester), linoleic acid methyl ester, reference compound]",<20,<20,<20,<10,<10,partial rescue,0-5%,0-5%,0-5%,0-5%,0-5%,0-5%,<20,<20,˜25%,˜25%,% Worm Death (24 hr) ([4]; 0.001% solution): <10%; % Worm Death (48 hr) ([5]; 0.01% solution): 0-5%; % Worm Death (48 hr) ([5]; 0.1% solution): 20%; % Worm Death (24 hr) ([9]; 0.01% solution): <10%; % Worm Death (24 hr) ([9]; 0.1% solution): <10%; % Worm Death (24 hr) ([10]; 0.01% solution): <10%; % Worm Death (24 hr) ([10]; 0.1% solution): <10%; % Worm Death (24 hr) ([12]; 0.01% solution): 20%; % Worm Death (24 hr) ([12]; 0.1% solution): 20%
"CCCCCCCC/C=C\CCCCCCCC(=O)OC [Oleic Acid (C18-methyl ester), oleic acid methyl ester, reference compound]",<10,<10,<10,<10,<10,does not rescue,0-5%,0-5%,0-5%,0-5%,0-5%,0-5%,<20,<20,˜10%,˜10%,"Visible effects on tomato seedlings [13]: none of the tomatoes treated with the other fatty acid methyl ester emulsions showed visible effects; M. incognita (% not viable) [14]: 25%; M. javanica (% not viable) [15]: 20%; percentage of non-motile microfilaria ([16]; 24 hrs post-inoculation, 0.0008%): 0%; percentage of non-motile microfilaria ([16]; 24 hrs post-inoculation, 0.0016%): 0%; percentage of non-motile microfilaria ([16]; 24 hrs post-inoculation, 0.003%): 0%; percentage of non-motile microfilaria ([16]; 24 hrs post-inoculation, 0.005%): 0%; percentage of non-motile microfilaria ([16]; 24 hrs post-inoculation, 0.0067%): 0%; percentage of non-motile microfilaria ([16]; 24 hrs post-inoculation, 0.008%): 0%; percentage of non-motile microfilaria ([16]; 48 hrs post-inoculation, 0.0008%): 0%; percentage of non-motile microfilaria ([16]; 48 hrs post-inoculation, 0.0016%): 0%; percentage of non-motile microfilaria ([16]; 48 hrs post-inoculation, 0.003%): 0%; percentage of non-motile microfilaria ([16]; 48 hrs post-inoculation, 0.005%): 0%; percentage of non-motile microfilaria ([16]; 48 hrs post-inoculation, 0.0067%): 0%; percentage of non-motile microfilaria ([16]; 48 hrs post-inoculation, 0.008%): 0%"
